# According to PMC12275099, “VX-445 (elexacaftor) inhibits chloride secretion across human bronchial epithelial cells by directly blocking KCa3.1 channels” (PNAS Nexus, 2025):
# Several values for one entry are separate records, joined by “and”; a condition that tells them apart may be missing. Equal values may be shown once. Read-outs that look alike come from different tables or passages of the source.
# What was measured:
# [1] = set-up: method as in earlier work; conditions: clinical trial data, converted, cited from earlier work
# [2] = system: primary WT CFTR-expressing HBEs; experiment: Ussing chamber Isc, forskolin-stimulated Cl- secretion; format: cell-based, human; conditions: for Isc in the presence of VX-445: single filters
# Source text: Primary human bronchial epithelial cells (HBEs) were collected from unused or discarded samples from the Center for Organ Recovery and Education via the University of Pittsburgh Pulmonary, Allergy, Critical Care, and Sleep Medicine Lung Biobank and Repository. All experimental procedures involving the use of HBEs were approved by the institutional review board (IRB STUDY19090084) and the Committee for Oversight of Research and Clinical Training Involving Decedents (CORID number 451) at the University of Pittsburgh. At all times, authors were blind to the identity of HBE donors. HBEs were cultured using the Vertex method ([72]). Studies were carried out on WT CFTR HBEs from 11 ([13]) donors and homozygous F508del/F508del CFTR HBEs from five ([5]) separate donors. HBEs were plated on Costar Transwell permeable supports ([…], 6.5 mm insert, polyester membrane, Corning) and grown at an air–liquid interface for 5+ weeks in HBE differentiation medium containing 2% Ultroser-G. Basolateral media were replaced three times per week. For whole-cell patch-clamp studies, HBEs were maintained in BronchiaLife airway media (LifeLine Cell Technology, LS-1047) and plated onto poly-L-lysine-coated coverslips (see below).
# Costar Transwell inserts were mounted in a modified Ussing chamber (P2300, Physiologic Instruments) and the monolayers continuously short-circuited (VCC MC8, Physiologic Instruments) by forcing the transepithelial voltage to 0 mV. Short-circuit current (Isc) measurements were taken in symmetric solutions, containing (in mM): 120 NaCl, 25 NaHCO3, 3.3 KH2PO4, 0.8 K2HPO4, 1.2 CaCl2, 1.2 MgCl2, and 10 glucose. The pH of the solution is 7.4 when gassed with 95% O2–5% CO2 at 37°C. Compounds were added cumulatively following the establishment of a new stable current response. Amiloride was added to the apical membrane, while all other compounds were added to both membranes due to their lipophilic nature. In all experiments, 10 µM amiloride was used to inhibit sodium absorption. Percent inhibition was calculated as the change in Isc (ΔIsc) between the forskolin or DCEBIO stable current level and the Isc following addition of the compound being assessed divided by the ΔIsc between the stable forskolin- or DCEBIO-induced Isc and the Isc following bumetanide addition.
# [3] = target: T1, endogenous KCa3.1 in WT CFTR-expressing HBEs (Homo sapiens, UniProt O15554); experiment: Whole-cell patch-clamp on undifferentiated HBEs; format: cell-based; conditions: VX-445 10 µM; 500 nM free Ca2+ in pipette; n = 3; read-out: inhibition of whole-cell outward potassium current
# T1 construct: endogenous in cells; host or cells: undifferentiated primary human bronchial epithelial cells (WT CFTR donors)
# Procedure: Our Isc results are consistent with VX-445 inhibiting KCa3.1 in HBEs. To directly assess this possibility, we initially carried out whole-cell patch-clamp studies on undifferentiated HBEs. […] Upon application of 10 µM VX-445, a majority of this current was inhibited, averaging 87 ± 4% (n = 3, P < 0.005; Fig. 3B). A summary of the current–voltage (I–V) relationship—normalized to cell capacitance—is shown in Fig. 3C, which also includes the whole-cell I–V in the presence of Tram-34. […] To ensure isolation of KCa3.1 currents and to more fully characterize this VX-445-dependent inhibition of KCa3.1, we utilized HEK cells heterologously expressing KCa3.1 (HEK-KCa3.1). Initially, we confirmed our results from HBEs, using whole-cell recordings, as above. […] In seven experiments, this inhibition averaged 58 ± 7% (P < 0.005). […] It is well recognized that drugs are carried to their targets in the blood bound to albumin, which ranges from 3.4 to 5.4%. Thus, we determined whether VX-445 (10 µM) would inhibit KCa3.1 expressed in HEK cells in the presence of 3.4% albumin. In four experiments, VX-445 inhibited an average of 51 ± 17% of the whole-cell KCa3.1 current, which is not different from that observed in the absence of albumin. To confirm the direct effect of VX-445 on KCa3.1, we utilized the excised, inside-out patch-clamp technique. The patch was then exposed to DCEBIO (100 µM) to further activate the channels ([34–37])—analogous to our Isc studies in HBEs. […] In three experiments, VX-445 inhibited an average of 63 ± 6% of the KCa3.1 current. Based on these experiments, we determined the apparent inhibitory constant, Ki for VX-445. For these experiments, patches were excised into saturating Ca^2+ (3 µM) to ensure maximal KCa3.1 activation. These studies were carried out in the absence of DCEBIO to eliminate the possibility that the inhibition observed was due to competition for the DCEBIO-binding site.
# Primary human bronchial epithelial cells (HBEs) were collected from unused or discarded samples from the Center for Organ Recovery and Education via the University of Pittsburgh Pulmonary, Allergy, Critical Care, and Sleep Medicine Lung Biobank and Repository. All experimental procedures involving the use of HBEs were approved by the institutional review board (IRB STUDY19090084) and the Committee for Oversight of Research and Clinical Training Involving Decedents (CORID number 451) at the University of Pittsburgh. At all times, authors were blind to the identity of HBE donors. HBEs were cultured using the Vertex method ([72]). Studies were carried out on WT CFTR HBEs from 11 ([13]) donors and homozygous F508del/F508del CFTR HBEs from five ([5]) separate donors. […]
compound,measurement,setting,value
"Cc1nn(C)cc1S(=O)(=O)NC(=O)c1ccc(-n2ccc(OCC(C)(C)C(F)(F)F)n2)nc1N1C[C@@H](C)CC1(C)C [VX-445, elexacaftor]",minimal (Cmin) plasma concentration,[1],6 to 9 µM
same,Cmax,[1]; read-out: maximal (Cmax) plasma concentration,~15 µM
same,percent inhibition of forskolin-stimulated Isc from control,"[2]; 5 µM VX-445, Fig 1D",33%
same,Isc in the presence of VX-445,"[2]; Fig 1F, VX-445 10 µM after forskolin and bumetanide",21 and 18 and 15 and 14 and 16 and 19 and 27 and 20
same,Isc in the presence of VX-445,"[2]; Fig 2B, VX-445 10 µM after forskolin",12 and 11 and 16 and 20 and 15 and 21 and 19 and 14
same,inhibition at 1 µM,"[2]; Homo sapiens, 1 µM VX-445, Fig 1D, read-out: percent inhibition of forskolin-stimulated Isc from control",0%
same,inhibition at 10 µM,"[2]; Homo sapiens, VX-445 10 µM after VX-661 10 µM, nine filters from three donors, read-out: inhibition of forskolin-stimulated current subsequent to VX-661",47 ± 2%
same,inhibition at 10 µM,"[2]; Homo sapiens, VX-445 10 µM, four donors, n = 13 (TRAM-34 series), read-out: inhibition of the forskolin-stimulated current",56 ± 2%
same,inhibition at 10 µM,"[2]; Homo sapiens, VX-445 10 µM, 16 experiments from three donors (paxilline series), read-out: inhibition of the forskolin-stimulated Isc",45 ± 2%
same,decrease of the forskolin-induced Cl- current,"[2]; VX-445 10 µM, 35 filters from five donors",47 ± 2%
same,effect on the bumetanide-insensitive current,"[2]; applied after forskolin and bumetanide, VX-445 10 µM, acetazolamide 1 µM",had no effect
same,inhibition at 10 µM,[3],87 ± 4%
